Literature values in patent publication US9345733B1, “Supplement composition for supporting telomere maintenance and protection and method of use” (CELLHEALTH TECHNOLOGIES LTD., priority 2011, dated 2016).
Like-named read-outs stand apart in the source and are kept apart here.

How the values were obtained:
[1] = system: human peripheral blood mononuclear cells; conditions: stimulated human peripheral blood mononuclear cells in vitro
[2] = system: IL-23p19, IFN-y, TNF-a, IL-6, MCP-1; conditions: ileum of treated animals
TNF-a [3] = target: TNF-a (Homo sapiens, UniProt P01375)
[4] = system: endothelial progenitor cells
[5] = system: chronic colonic inflammation; conditions: mice, dietary supplementation; reductions of TNF-a and IL-1β, increase of IL-10
[6] = system: vascular smooth muscle cells; conditions: stimulated by tumor necrosis factor-alpha
[7] = system: endothelial nitric oxide synthase; conditions: HUVEC, at nanomolar concentrations
[8] = system: human arterial smooth muscle cells (HASMCs)
[9] = system: endothelial progenitor cells; conditions: in culture
NF-κB and TNF-a = conditions: peripheral blood mononuclear cells of asthma patients, in-vitro
[10] = system: endothelial nitric oxide synthase; conditions: human aortic endothelial cells
TNF-a [11] = conditions: hypertensive rats
alveolar macrophages = alveolar macrophages in idiopathic pulmonary fibrosis in vitro
[12] = system: diseased endothelial cells; conditions: chronic exposure; via activation of hTERT and transient telomere stabilization

Chain of TNF-a (Homo sapiens, UniProt P01375) (P01375 77-233 limits assumed, species assumed): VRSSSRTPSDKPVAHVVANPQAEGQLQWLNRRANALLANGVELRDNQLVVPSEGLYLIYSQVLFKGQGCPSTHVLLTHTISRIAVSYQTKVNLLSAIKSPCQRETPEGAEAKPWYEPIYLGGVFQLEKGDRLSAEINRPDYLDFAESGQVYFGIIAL

Which homocysteine formation [1] does the source give for Oc1ccc(C=Cc2cc(O)cc(O)c2)cc1 [resveratrol, Resveratrol] here?
Its homocysteine formation is “suppresses”.

What about the “pro-inflammatory cytokine expression (IL-23p19, IFN-y, TNF-a, IL-6, MCP-1)” value [2] of the same compound?
The value was “significantly lower”.

What about the “TNF-a induced changes of adipokines” value (TNF-a [3]) of the same compound?
Its value is “inhibits”.

What about the “onset of endothelial progenitor cells senescence” value [4] of the same compound?
Its value is “delayed the onset”.

What about the telomerase ([4]; through the PI3K-Akt signalling pathway) of the same compound?
Its telomerase is “activation of telomerase”.

And the chronic colonic inflammation [5]?
Its chronic colonic inflammation is “attenuates”.

For CC(C)=CCC[C@](C)(O[C@@H]1O[C@H](CO)[C@@H](O)[C@H](O)[C@H]1O)[C@H]1CC[C@]2(C)[C@@H]1[C@H](O)C[C@@H]1[C@@]3(C)CC[C@H](O)C(C)(C)[C@@H]3[C@@H](O[C@@H]3O[C@H](CO)[C@@H](O)[C@H](O)[C@H]3O)C[C@]12C [ginsenoside Rg1], which “proliferation of vascular smooth muscle cells” value [6] is on record?
Its value is “inhibits”.

And the “endothelial nitric oxide synthase phosphorylation via Akt” value [7]?
The value was “induces”.

What about the “TNF-a-induced HASMCs proliferation” value [8] of the same compound?
Its value is “inhibits”.

With O=c1c(-c2ccc(O)cc2)coc2c([C@@H]3O[C@H](CO)[C@@H](O)[C@H](O)[C@H]3O)c(O)ccc12 [puerarin, Puerarin] as the compound, how does the “onset of endothelial progenitor cells senescence” value [9] read?
The value was “dose dependently prevents”.

What about the “proliferation of endothelial progenitor cells” value [9] of the same compound?
The value was “increases”.

And the “pathway of NF-κB and TNF-a” value (NF-κB and TNF-a)?
The value was “could inhibit”.

Which “endothelial nitric oxide synthase-Ser1177 phosphorylation and nitric oxide production” value [10] does the source give for CC(C)=CCC[C@](C)(O[C@@H]1O[C@H](CO[C@@H]2O[C@H](CO)[C@@H](O)[C@H](O)[C@H]2O)[C@@H](O)[C@H](O)[C@H]1O)[C@H]1CC[C@]2(C)[C@@H]1[C@H](O)C[C@@H]1[C@@]3(C)CC[C@H](O[C@@H]4O[C@H](CO)[C@@H](O)[C@H](O)[C@H]4O[C@@H]4O[C@H](CO)[C@@H](O)[C@H](O)[C@H]4O)C(C)(C)[C@@H]3CC[C@]12C [ginsenoside Rb1] here?
The value was “acutely induces”.

With CC(=O)N[C@@H](CS)C(=O)O [N-acetylcysteine] as the compound, how does the “progression of cardiac injury” value (TNF-a [11]) read?
Its value is “hinders”.

And the “serum TNF-a level” value (TNF-a [11])?
Its value is “normalizes”.

What about the “TNF-a, sTNFR, and TGF-beta1 release” value (alveolar macrophages) of the same compound?
The value was “inhibits”.

And the “senescence of diseased endothelial cells” value [12]?
Its value is “can delay senescence”.

And the “deleterious effect of TNF-a on calcium transients and contraction” value (adult rat cardiomyocytes)?
The value was “prevents”.
